{
  "source": "paper PMC11451967",
  "about": "(2024)",
  "experiment_in_all_cases": "fluorescence turn-on, 625 nm",
  "key": {"[1]": {"system": "ssRNAmix (RNA, single strand) AUGUACCUAGUCUGACCUAG", "details": "BPC1 1 μM, oligonucleotide 4 μM; no fluorescence increase"}, "[2]": {"system": "ssDNAmix (DNA, single strand) ATGCTCAGACTGTCAGAGTC", "details": "BPC1 1 μM, oligonucleotide 4 μM; weak fluorescence enhancement"}, "[3]": {"system": "NC (RNA, single strand) UUGUACUACACAAAAGUACUG", "details": "BPC1 1 μM, oligonucleotide 4 μM; no fluorescence increase"}, "[4]": {"system": "dsDNAmix (DNA, duplex) CGATAAGCGCTTATCGAGTCGACTCGATAAGCGCTTATCG", "details": "BPC1 1 μM, oligonucleotide 4 μM; significant fluorescence enhancement"}},
  "data": [
    {"smiles": "CC[n+]1c(/C=C/C=C2C=CN(c3ccccc3)C=C2)sc2ccccc21", "values": [
      {"measurement": "binding", "setting": "[1]", "value": "no"},
      {"measurement": "binding", "setting": "[2]", "value": "weak"},
      {"measurement": "binding", "setting": "[3]", "value": "no"},
      {"measurement": "binding", "setting": "[4]", "value": "yes"}
    ]}
  ]
}
